Source: patent publication US20250122225A1, “MASP-2 INHIBITORS AND METHODS OF USE” (Omeros Corporation, priority 2023, published 2025)
Structures can show the parent of a compound that is named as a salt.

How the values were obtained:
MASP-2 (CCP1-CCP2-SP) = target: T1, MASP-2 (CCP1-CCP2-SP) (Homo sapiens, UniProt O00187); assay: Enzymatic assay for MASP-2 inhibitory activity (fluorogenic substrate); format: biochemical
T1 construct: 15 μL of Enzyme MASP-2 (CCP1-CCP2-SP) in Assay Buffer
Summary of the method: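 MASP-2 (CCP1-CCP2-SP) cleaved a fluorogenic substrate based on the C2 cleavage site in 20 mM HEPES pH 7.4, 140 mM NaCl, 0.1% Tween 20 at room temperature. After 20 min the reaction was stopped with 0.1 M acetic acid and fluorescence read. % activity was normalized to DMSO-only and no-enzyme controls; IC50 taken as Ki.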

human α-thrombin = target: T2, human α-thrombin (Homo sapiens, UniProt P00734); assay: Enzymatic assay for thrombin (fluorogenic peptide substrate Boc-VPR-AMC); format: biochemical
T2 construct: enzyme (human α-thrombin (BioPharm® Lab.)) in assay buffer; purchased BioPharm® Lab
Summary of the method: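 Human α-thrombin was run with the fluorogenic substrate Boc-VPR-AMC in 20 mM Hepes pH 7.4, 140 mM NaCl, 0.1% Tween 20 at room temperature for 20 min, then stopped with 0.1 M acetic acid. % activity was normalized to DMSO and no-enzyme controls. Under linear conditions IC50 equalled Ki, except for tight-binding inhibitors.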

T1 sequence (O00187 445-686 limits assumed): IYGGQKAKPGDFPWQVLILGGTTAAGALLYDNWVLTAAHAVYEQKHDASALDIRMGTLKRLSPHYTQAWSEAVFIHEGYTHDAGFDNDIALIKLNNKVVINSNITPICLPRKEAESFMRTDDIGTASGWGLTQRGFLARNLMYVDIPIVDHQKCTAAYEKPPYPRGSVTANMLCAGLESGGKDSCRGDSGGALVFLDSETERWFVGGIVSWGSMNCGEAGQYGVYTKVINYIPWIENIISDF
T1 sequence (O00187 287-444 partner limits assumed): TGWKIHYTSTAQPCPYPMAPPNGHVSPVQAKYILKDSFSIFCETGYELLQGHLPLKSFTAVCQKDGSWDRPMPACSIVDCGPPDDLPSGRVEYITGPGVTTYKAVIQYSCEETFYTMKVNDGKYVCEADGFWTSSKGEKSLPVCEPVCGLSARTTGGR

Compound | Ki (MASP-2 (CCP1-CCP2-SP)) | Ki (human α-thrombin)
N#Cc1nc(NCc2ccccc2)c(=O)n2c1CC[C@H]2C(=O)NCc1cc2cnccc2[nH]1 [Compound 121, (S)—N-((1H-pyrrolo[3,2-c]pyridin-2-yl)methyl)-3-(benzylamino)-1-cyano-4-oxo-4,6,7,8-tetrahydropyrrolo[1,2-a]pyrazine-6-carboxamide trifluoroacetate] | < 500 nM | 10000 to 25000 nM
Cc1ccccc1[C@H](C)Nc1ncc2n(c1=O)[C@H](C(=O)NCc1cc3cnccc3[nH]1)CC2 [Compound 83, (S)-N-((1H-pyrrolo[3,2-c]pyridin-2-yl)methyl)-4-oxo-3-(((S)-1-(o-tolyl)ethyl)amino)-4,6,7,8-tetrahydropyrrolo[1,2-a]pyrazine-6-carboxamide] | < 500 nM | 2500 to 10000 nM
Cc1cccc([C@H](C)Nc2ncc3n(c2=O)[C@H](C(=O)NCc2cc4c(s2)CNC4)CC3)c1 [Compound 95, (S)-N-((5,6-dihydro-4H-thieno[2,3-c]pyrrol-2-yl)methyl)-4-oxo-3-(((S)-1-(m-tolyl)ethyl)amino)-4,6,7,8-tetrahydropyrrolo[1,2-a]pyrazine-6-carboxamide] | < 500 nM | 500 to 2500 nM
O=C(NCc1cc2cnccc2[nH]1)[C@@H]1CCc2cnc(NCc3ccccc3)c(=O)n21 [Compound 102, (S)—N-((1H-pyrrolo[3,2-c]pyridin-2-yl)methyl)-3-(benzylamino)-4-oxo-4,6,7,8-tetrahydropyrrolo[1,2-a]pyrazine-6-carboxamide] | < 500 nM | 500 to 2500 nM
Cc1cc(C)cc(CNc2ncc3n(c2=O)[C@H](C(=O)NCc2cc4c(s2)CNC4)CC32CC2)c1 [Compound 126, (S)—N-((5,6-dihydro-4H-thieno[2,3-c]pyrrol-2-yl)methyl)-3′-((3,5-dimethylbenzyl)amino)-4′-oxo-6′,7′-dihydro-4′H-spiro[cyclopropane-1,8′-pyrrolo[1,2-a]pyrazine]-6′-carboxamide] | < 500 nM | 500 to 2500 nM
O=C(NCc1cc2cnccc2[nH]1)[C@@H]1CC2(CC2)c2c(Cl)nc(NCc3ccccc3)c(=O)n21 [Compound 128, (S)—N-((1H-pyrrolo[3,2-c]pyridin-2-yl)methyl)-3′-(benzylamino)-1′-chloro-4′-oxo-6′,7′-dihydro-4′H-spiro[cyclopropane-1,8′-pyrrolo[1,2-a]pyrazine]-6′-carboxamide] | < 500 nM | 2500 to 10000 nM
COc1cc(C)cc(CNc2ncc3n(c2=O)[C@H](C(=O)NCc2cc4cnc(C)cc4[nH]2)C[C@@H]3Cc2ccccc2)c1 [Compound 137, (6S,8S)-8-benzyl-3-((3-methoxy-5-methylbenzyl)amino)-N-((6-methyl-1H-pyrrolo[3,2-c]pyridin-2-yl)methyl)-4-oxo-4,6,7,8-tetrahydropyrrolo[1,2-a]pyrazine-6-carboxamide] | < 500 nM | > 25000 nM
O=C(NCc1cc2cnccc2[nH]1)[C@@H]1CCc2cnc(NCc3cccc(C(F)(F)F)c3)c(=O)n21 [Compound 117, (S)-N-((1H-pyrrolo[3,2-c]pyridin-2-yl)methyl)-4-oxo-3-((3-(trifluoromethyl)benzyl)amino)-4,6,7,8-tetrahydropyrrolo[1,2-a]pyrazine-6-carboxamide trifluoroacetate] | < 500 nM | 2500 to 10000 nM
Cc1cccc(CNc2ncc3n(c2=O)[C@H](C(=O)NCc2cc4cnccc4[nH]2)CC3)c1 [Compound 115, (S)-N-((1H-pyrrolo[3,2-c]pyridin-2-yl)methyl)-3-((3-methylbenzyl)amino)-4-oxo-4,6,7,8-tetrahydropyrrolo[1,2-a]pyrazine-6-carboxamide trifluoroacetate] | < 500 nM | 500 to 2500 nM
Cc1cccc(CNc2ncc3n(c2=O)[C@H](C(=O)NCc2ccc(N)nc2C)CC3)c1C [Compound 60, (S)-N-((6-amino-2-methylpyridin-3-yl)methyl)-3-((2,3-dimethylbenzyl)amino)-4-oxo-4,6,7,8-tetrahydropyrrolo[1,2-a]pyrazine-6-carboxamide] | < 500 nM | < 500 nM
Cc1cc(C)cc(CNc2ncc3n(c2=O)[C@H](C(=O)NCc2cc4cnc(C)cc4[nH]2)CC32CC2)c1 [Compound 124, (S)-3′-((3,5-dimethylbenzyl)amino)-N-((6-methyl-1H-pyrrolo[3,2-c]pyridin-2-yl)methyl)-4′-oxo-6′,7′-dihydro-4′H-spiro[cyclopropane-1,8′-pyrrolo[1,2-a]pyrazine]-6′-carboxamide trifluoroacetate] | < 500 nM | > 25000 nM
Cc1cccc(CNc2nc(Cl)c3n(c2=O)[C@H](C(=O)NCc2cc4cnccc4[nH]2)CC3)c1F [Compound 13, (S)-N-((1H-pyrrolo[3,2-c]pyridin-2-yl)methyl)-1-chloro-3-((2-fluoro-3-methylbenzyl)amino)-4-oxo-4,6,7,8-tetrahydropyrrolo[1,2-a]pyrazine-6-carboxamide] | < 500 nM | 10000 to 25000 nM

Results, then the molecule that gave them:

Ki (MASP-2 (CCP1-CCP2-SP)) | Ki (human α-thrombin) | Compound
< 500 nM | 2500 to 10000 nM | Cc1cc(F)cc(CNc2ncc3n(c2=O)[C@H](C(=O)NCc2ccc(CN)cc2C)CC3)c1 [Compound 205, (S)—N-(4-(aminomethyl)-2-methylbenzyl)-3-((3-fluoro-5-methylbenzyl)amino)-4-oxo-4,6,7,8-tetrahydropyrrolo[1,2-a]pyrazine-6-carboxamide trifluoroacetate]
< 500 nM | 10000 to 25000 nM | CC[C@@H](Nc1ncc2n(c1=O)[C@H](C(=O)N[C@@H](C)c1cc3c(s1)CNC3)CC2)c1ccccc1 [Compound 278]
< 500 nM | 2500 to 10000 nM | Cc1ccc(C)c(CNc2ncc3n(c2=O)[C@H](C(=O)N[C@H](C)c2ccc(N)nc2)CC3)c1 [Compound 193, (S)-N-((R)-1-(6-aminopyridin-3-yl)ethyl)-3-((2,5-dimethylbenzyl)amino)-4-oxo-4,6,7,8-tetrahydropyrrolo[1,2-a]pyrazine-6-carboxamide trifluoroacetate]
< 500 nM | < 500 nM | Cc1nc(N)ccc1CNC(=O)[C@@H]1CCc2cnc(NCc3cccc(-c4ccccc4)c3)c(=O)n21 [Compound 220, (S)-3-(([1,1′-biphenyl]-3-ylmethyl)amino)-N-((6-amino-2-methylpyridin-3-yl)methyl)-4-oxo-4,6,7,8-tetrahydropyrrolo[1,2-a]pyrazine-6-carboxamide trifluoroacetate]
< 500 nM | 500 to 2500 nM | Cc1cc(C)cc(CNc2ncc3n(c2=O)[C@H](C(=O)NCc2cnc(N)c(Cl)c2)CC3)c1 [Compound 189, (S)-N-((6-amino-5-chloropyridin-3-yl)methyl)-3-((3,5-dimethylbenzyl)amino)-4-oxo-4,6,7,8-tetrahydropyrrolo[1,2-a]pyrazine-6-carboxamide]
< 500 nM | 500 to 2500 nM | O=C(NCc1cc2cnccc2[nH]1)[C@@H]1CCc2cnc(NCC3CCc4ccccc4C3)c(=O)n21 (stereo partly drawn) [Compound 148]
< 500 nM | > 25000 nM | Cc1cc(F)cc(CNc2nc(C3CCCCC3)c3n(c2=O)[C@H](C(=O)NCc2cc4cnccc4[nH]2)CC3)c1 [Compound 177, trifluoroacetate]
< 500 nM | < 500 nM | CC[C@@H](Nc1ncc2n(c1=O)[C@H](C(=O)NCc1cc3c(s1)CNC3)CC2)c1ccccc1 [Compound 234]
< 500 nM | 500 to 2500 nM | Nc1ccc2c(n1)CC[C@H]2NC(=O)[C@@H]1CCc2cnc(NCc3cccc(-c4ccccc4)c3)c(=O)n21 [Compound 236]
< 500 nM | < 500 nM | CC(C)(C)[C@@H](Nc1ncc2n(c1=O)[C@H](C(=O)NCc1cc3c(s1)CNC3)CC2)c1ccc(F)cc1 [Compound 280, (S)—N-((5,6-dihydro-4H-thieno[2,3-c]pyrrol-2-yl)methyl)-3-(((R)-1-(4-fluorophenyl)-2,2-dimethylpropyl)amino)-4-oxo-4,6,7,8-tetrahydropyrrolo[1,2-a]pyrazine-6-carboxamide]
500 to 2500 nM | > 25000 nM | Nc1nc(Cl)c2n(c1=O)[C@H](C(=O)NCc1cc3cnccc3[nH]1)CC21CCCC1 [Compound 232, (S)—N-((1H-pyrrolo[3,2-c]pyridin-2-yl)methyl)-3′-amino-1′-chloro-4′-oxo-6′,7′-dihydro-4′H-spiro[cyclopentane-1,8′-pyrrolo[1,2-a]pyrazine]-6′-carboxamide trifluoroacetate]
< 500 nM | < 500 nM | CC[C@H]1C[C@@H](C(=O)NCc2ccc(N)nc2)n2c1cnc(NCc1cc(C)cc(C)c1)c2=O [Compound 157, (6S,8S)-N-((6-aminopyridin-3-yl)methyl)-3-((3,5-dimethylbenzyl)amino)-8-ethyl-4-oxo-4,6,7,8-tetrahydropyrrolo[1,2-a]pyrazine-6-carboxamide]
